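All cell lines were grown in 96-well plates and treated with compound for 48 hours. GI50: concentration for 50% inhibition of growth.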 Active and inactive are the calls of the source. Cut-off read from the data, not from the text of the source: active = GI50 up to about 1.1 µM and inactive = higher.
Key:
Experiment in all cases: inhibition of tumour cell growth, NCI panel, 48 h
786-0 = system: 786-0
A498 = system: A498
A549 = system: A549
ACHN = system: ACHN
CCRF-CEM = system: CCRF-CEM
DLD-1 = system: DLD-1
EKVX = system: EKVX
HCT-116 = system: HCT-116
HCT-15 = system: HCT-15
HOP-18 = system: HOP-18
HOP-62 = system: HOP-62
HT-29 = system: HT-29
IGROV-1 = system: IGROV-1
K562 = system: K562
KM-20L2 = system: KM-20L2
KM12 = system: KM12
LXFL 529 = system: LXFL 529
M14 = system: M14
M19-MEL = system: M19-MEL
MOLT-4 = system: MOLT-4
Malme-3M = system: Malme-3M
NCI-H226 = system: NCI-H226
NCI-H23 = system: NCI-H23
NCI-H460 = system: NCI-H460
NCI-H522 = system: NCI-H522
OVCAR-5 = system: OVCAR-5
OVCAR-8 = system: OVCAR-8
RPMI-8226 = system: RPMI-8226
RXF 393 = system: RXF 393
RXF 631 = system: RXF 631
SF-268 = system: SF-268
SF-295 = system: SF-295
SF-539 = system: SF-539
SK-MEL-28 = system: SK-MEL-28
SK-MEL-2 = system: SK-MEL-2
SK-MEL-5 = system: SK-MEL-5
SK-OV-3 = system: SK-OV-3
SN12C = system: SN12C
SNB-19 = system: SNB-19
SNB-75 = system: SNB-75
SNB-78 = system: SNB-78
SR = system: SR
SW-620 = system: SW-620
TK-10 = system: TK-10
U-251 = system: U-251
UACC-257 = system: UACC-257
UO-31 = system: UO-31
XF498 = system: XF498
CAKI-1 = system: CAKI-1
COLO 205 = system: COLO 205
DMS-114 = system: DMS-114
DMS-273 = system: DMS-273
HCC 2998 = system: HCC 2998
HL-60 = system: HL-60
HOP-92 = system: HOP-92
LOX IMVI = system: LOX IMVI
OVCAR-3 = system: OVCAR-3
OVCAR-4 = system: OVCAR-4
UACC-62 = system: UACC-62

**Q.** How did the GI50 (786-0) turn out when `Cc1ccc(C2=C(c3ccc(C)cc3)C(c3ccc(C)cc3)=C(c3ccc(C)cc3)C2=O)cc1` was run?
**A.** > 100 µM (inactive)

**Q.** What about the GI50 (A498) of the same compound?
**A.** > 100 µM (inactive)

**Q.** And the GI50 (A549)?
**A.** > 100 µM (inactive)

**Q.** What about the GI50 (ACHN) of the same compound?
**A.** > 100 µM (inactive)

**Q.** And the GI50 (CCRF-CEM)?
**A.** > 100 µM (inactive)

**Q.** What about the GI50 (DLD-1) of the same compound?
**A.** > 100 µM (inactive)

**Q.** And the GI50 (EKVX)?
**A.** > 100 µM (inactive)

**Q.** And the GI50 (HCT-116)?
**A.** > 100 µM (inactive)

**Q.** What about the GI50 (HCT-15) of the same compound?
**A.** > 100 µM

**Q.** What about the GI50 (HOP-18) of the same compound?
**A.** > 100 µM (inactive)

**Q.** What about the GI50 (HOP-62) of the same compound?
**A.** > 100 µM (inactive)

**Q.** And the GI50 (HT-29)?
**A.** > 100 µM (inactive)

**Q.** And the GI50 (IGROV-1)?
**A.** > 100 µM (inactive)

**Q.** What about the GI50 (K562) of the same compound?
**A.** > 100 µM (inactive)

**Q.** And the GI50 (KM-20L2)?
**A.** > 100 µM (inactive)

**Q.** And the GI50 (KM12)?
**A.** > 100 µM (inactive)

**Q.** What about the GI50 (LXFL 529) of the same compound?
**A.** > 100 µM (inactive)

**Q.** What about the GI50 (M14) of the same compound?
**A.** > 100 µM (inactive)

**Q.** What about the GI50 (M19-MEL) of the same compound?
**A.** > 100 µM (inactive)

**Q.** What about the GI50 (MOLT-4) of the same compound?
**A.** > 100 µM (inactive)

**Q.** And the GI50 (Malme-3M)?
**A.** > 100 µM (inactive)

**Q.** And the GI50 (NCI-H226)?
**A.** > 100 µM (inactive)

**Q.** And the GI50 (NCI-H23)?
**A.** > 100 µM (inactive)

**Q.** And the GI50 (NCI-H460)?
**A.** > 100 µM (inactive)

**Q.** What about the GI50 (NCI-H522) of the same compound?
**A.** > 100 µM (inactive)

**Q.** What about the GI50 (OVCAR-5) of the same compound?
**A.** > 100 µM (inactive)

**Q.** And the GI50 (OVCAR-8)?
**A.** > 100 µM (inactive)

**Q.** And the GI50 (RPMI-8226)?
**A.** > 100 µM (inactive)

**Q.** What about the GI50 (RXF 393) of the same compound?
**A.** > 100 µM (inactive)

**Q.** What about the GI50 (RXF 631) of the same compound?
**A.** > 100 µM (inactive)

**Q.** What about the GI50 (SF-268) of the same compound?
**A.** > 100 µM (inactive)

**Q.** What about the GI50 (SF-295) of the same compound?
**A.** > 100 µM (inactive)

**Q.** What about the GI50 (SF-539) of the same compound?
**A.** > 100 µM (inactive)

**Q.** What about the GI50 (SK-MEL-28) of the same compound?
**A.** > 100 µM (inactive)

**Q.** And the GI50 (SK-MEL-2)?
**A.** > 100 µM (inactive)

**Q.** What about the GI50 (SK-MEL-5) of the same compound?
**A.** > 100 µM (inactive)

**Q.** What about the GI50 (SK-OV-3) of the same compound?
**A.** > 100 µM (inactive)

**Q.** And the GI50 (SN12C)?
**A.** > 100 µM (inactive)

**Q.** What about the GI50 (SNB-19) of the same compound?
**A.** > 100 µM (inactive)

**Q.** What about the GI50 (SNB-75) of the same compound?
**A.** > 100 µM (inactive)

**Q.** What about the GI50 (SNB-78) of the same compound?
**A.** > 100 µM (inactive)

**Q.** And the GI50 (SR)?
**A.** > 100 µM (inactive)

**Q.** And the GI50 (SW-620)?
**A.** > 100 µM (inactive)

**Q.** What about the GI50 (TK-10) of the same compound?
**A.** > 100 µM (inactive)

**Q.** And the GI50 (U-251)?
**A.** > 100 µM (inactive)

**Q.** And the GI50 (UACC-257)?
**A.** > 100 µM (inactive)

**Q.** What about the GI50 (UO-31) of the same compound?
**A.** > 100 µM (inactive)

**Q.** What about the GI50 (XF498) of the same compound?
**A.** > 100 µM (inactive)

**Q.** Which GI50 (786-0) does the source give for `COS(=O)c1cc(Cl)cc(Cl)c1OC(=O)CSSCC(=O)Oc1c(Cl)cc(Cl)cc1S(=O)OC` (stereo not drawn) here?
**A.** 22.4 µM (inactive)

**Q.** And the GI50 (A498)?
**A.** 15.5 µM (inactive)

**Q.** What about the GI50 (A549) of the same compound?
**A.** 13.2 µM (inactive)

**Q.** And the GI50 (ACHN)?
**A.** 21 µM (inactive)

**Q.** And the GI50 (CAKI-1)?
**A.** 26.6 µM (inactive)

**Q.** What about the GI50 (CCRF-CEM) of the same compound?
**A.** 19.6 µM (inactive)

**Q.** What about the GI50 (COLO 205) of the same compound?
**A.** 22.6 µM (inactive)

**Q.** What about the GI50 (DLD-1) of the same compound?
**A.** 15.3 µM (inactive)

**Q.** And the GI50 (DMS-114)?
**A.** 15.8 µM (inactive)

**Q.** And the GI50 (DMS-273)?
**A.** 12.4 µM (inactive)

**Q.** And the GI50 (EKVX)?
**A.** 20 µM (inactive)

**Q.** And the GI50 (HCC 2998)?
**A.** 21.6 µM (inactive)

**Q.** What about the GI50 (HCT-15) of the same compound?
**A.** 14.4 µM

**Q.** What about the GI50 (HL-60) of the same compound?
**A.** 22.4 µM (inactive)

**Q.** And the GI50 (HOP-18)?
**A.** 21.6 µM (inactive)

**Q.** What about the GI50 (HOP-62) of the same compound?
**A.** > 10 µM (inactive)

**Q.** What about the GI50 (HOP-92) of the same compound?
**A.** 22.4 µM (inactive)

**Q.** What about the GI50 (HT-29) of the same compound?
**A.** 30.4 µM (inactive)

**Q.** What about the GI50 (IGROV-1) of the same compound?
**A.** 19.4 µM (inactive)

**Q.** What about the GI50 (K562) of the same compound?
**A.** 20.4 µM (inactive)

**Q.** And the GI50 (KM-20L2)?
**A.** 27.3 µM (inactive)

**Q.** What about the GI50 (KM12) of the same compound?
**A.** 14.8 µM (inactive)

**Q.** And the GI50 (LOX IMVI)?
**A.** 16 µM (inactive)

**Q.** And the GI50 (LXFL 529)?
**A.** 21 µM (inactive)

**Q.** What about the GI50 (M14) of the same compound?
**A.** 18.8 µM (inactive)

**Q.** And the GI50 (M19-MEL)?
**A.** 20 µM (inactive)

**Q.** And the GI50 (MOLT-4)?
**A.** 17.1 µM (inactive)

**Q.** And the GI50 (Malme-3M)?
**A.** 15.2 µM (inactive)

**Q.** And the GI50 (NCI-H23)?
**A.** 11.2 µM (inactive)

**Q.** And the GI50 (NCI-H460)?
**A.** 8.69 µM (inactive)

**Q.** And the GI50 (NCI-H522)?
**A.** 14.2 µM (inactive)

**Q.** What about the GI50 (OVCAR-3) of the same compound?
**A.** 23.9 µM (inactive)

**Q.** What about the GI50 (OVCAR-4) of the same compound?
**A.** 19.3 µM (inactive)

**Q.** What about the GI50 (OVCAR-5) of the same compound?
**A.** 16.7 µM (inactive)

**Q.** What about the GI50 (OVCAR-8) of the same compound?
**A.** 20.5 µM (inactive)

**Q.** What about the GI50 (RPMI-8226) of the same compound?
**A.** 12.5 µM (inactive)

**Q.** What about the GI50 (RXF 393) of the same compound?
**A.** 15.3 µM (inactive)

**Q.** What about the GI50 (RXF 631) of the same compound?
**A.** 20.3 µM (inactive)

**Q.** And the GI50 (SF-268)?
**A.** 7.26 µM (inactive)

**Q.** What about the GI50 (SF-295) of the same compound?
**A.** 19.5 µM (inactive)

**Q.** And the GI50 (SF-539)?
**A.** 13.8 µM (inactive)

**Q.** What about the GI50 (SK-MEL-28) of the same compound?
**A.** 12.4 µM (inactive)

**Q.** And the GI50 (SK-MEL-2)?
**A.** 17.3 µM (inactive)

**Q.** And the GI50 (SK-MEL-5)?
**A.** 17.4 µM (inactive)

**Q.** What about the GI50 (SK-OV-3) of the same compound?
**A.** 51.3 µM (inactive)

**Q.** What about the GI50 (SN12C) of the same compound?
**A.** 10.2 µM (inactive)

**Q.** And the GI50 (SNB-19)?
**A.** 5.24 µM (inactive)

**Q.** What about the GI50 (SNB-75) of the same compound?
**A.** 24.7 µM (inactive)

**Q.** What about the GI50 (SNB-78) of the same compound?
**A.** 22.9 µM (inactive)

**Q.** And the GI50 (SW-620)?
**A.** 28.4 µM (inactive)

**Q.** And the GI50 (TK-10)?
**A.** 34.5 µM (inactive)

**Q.** And the GI50 (U-251)?
**A.** 5.92 µM (inactive)

**Q.** What about the GI50 (UACC-257) of the same compound?
**A.** 23.2 µM (inactive)

**Q.** And the GI50 (UACC-62)?
**A.** 6.97 µM (inactive)

**Q.** And the GI50 (UO-31)?
**A.** 13.2 µM (inactive)

— ChEMBL document CHEMBL1201862, “PubChem BioAssay data set” (2004)
